Test results published in patent US6503542B2, “Herbal compositions for treating immunological disorders” (GloboAsia, L.L.C., priority 2000, dated 2003).

Key:
Assay type in all cases: in vivo, BALB/c mice
Conditions in all cases: FIG. 10; comparison with conventional asthma drugs
IFN-γ = experiment: ELISA determination of IFN-γ in fluid of pulmonary alveoli of Der p 5 sensitized mice
From the text: (§1) The effects of the STA-36 and STA-4 herbal composition as well as individual herbs on suppression of allergen-induced immunoglobulin G (IgG), immunoglobulin E (IgE), interleukin-4 (IL-4), and interferon γ (IFN-γ) were investigated using BALB/c mice sensitized with D.P. (Dermatophagoides pteronyssimus) allergen “Der p 5”. Dermatophagoides pteronyssimus is the house dust mite which acts as an antigen and produces an allergic asthmatic reaction in atopic person.
(§2) Female BALB/c mice aged between 4 and 6 weeks and weighed about 20 g were obtained from the National Animal-breeding Center, Republic of China and used in the studies. Mice were age- and sex- matched for each experiment.
(§3) BALB/c mice were initially intraperitoneally sensitized with 10 μg of Dermatophagoides pteronyssimus group 5 (“Der p 5”) allergen and 4 mg of aluminium hydroxide (Wyeth Pharmaceuticals, Punchbowl, Australia). Seven (7) days after the first sensitization, mice, except the placebo control group, were fed with STA-36 and STA-4 herbal compositions until the end of the twenty-first day.
(§4) At the end of the twenty first day, the mice were given a second booster injection of Der p 5. Forty eight (48) hours after the second booster injection, mice were placed in a round plastic container where the mice were further challenged by 0.1% Der p 5 spray.
(§5) Several hours after the challenge, the mouse was anaesthetized using 100 mg/ml phenobarbital. Blood was collected from the tail vein or heart. […]
(§6) One hundred (100) μl of the supernatant from the fluid of pulmonary alveoli were then added to the microwells, together with cytokine standard solution, for overnight reaction at 4° C. […] Plates were read in a microplate autoreader (ELISA reader, Dynex MRX) at 405 nm.
(§7) All of the data contained in the experiments were calculated as “mean±SEM.” Trachea resistance change induced by acetylcholine after converted to PC 100 was measured as μg/kg. […]

IL-4 = experiment: ELISA determination of IL-4 in fluid of pulmonary alveoli of Der p 5 sensitized mice
From the text: as §1, §2, §3, §4, §5, §6, §7

IgE = experiment: ELISA determination of Der p 5-specific IgE in serum of Der p 5 sensitized mice
From the text: as §1, §2, §3, §4
(§8) Several hours after the challenge, the mouse was anaesthetized using 100 mg/ml phenobarbital. […]
(§9) The amount of Der p 5-specific IgG and IgE were determined by Enzyme Linked Immunosorbent Assay (ELISA). […]
(§10) Avidin-alkaline phosphatase (1:1000) (Strptavidin-AP, PharMinge 13043E) was then added and incubated for 1 hour at 25° C., followed by six (6) washes. […] Plates were read in a microplate autoreader (ELISA reader, Dynex MRX) at 405 nm. Readings were referenced to commercial isotypes standards which were mouse anti-TNP mAb, IgG1 (107.3), IgG2a (G155-178), and IgE (IgE-3).
as §7

IgG2a = experiment: ELISA determination of Der p 5-specific IgG (IgG2a) in serum of Der p 5 sensitized mice
From the text: as §1, §2, §3, §4, §8, §9, §10, §7

Row | SMILES | effect on IFN-γ vs control (IFN-γ) | effect on IL-4 vs control (IL-4) | effect on IgE vs control (IgE) | effect on IgG (IgG2a) vs control (IgG2a)
1 | C[C@]12C=CC(=O)C=C1CC[C@@H]1[C@@H]2[C@@H](O)C[C@@]2(C)[C@H]1CC[C@]2(O)C(=O)CO [prednisolone] | only STA-4 demonstrated significant decreased in IgE and significant increase in IgG, IL-4, and IFN-γ | only STA-4 demonstrated significant decreased in IgE and significant increase in IgG, IL-4 | only STA-4 demonstrated significant decreased in IgE | only STA-4 demonstrated significant decreased in IgE and significant increase in IgG
2 | Cn1c(=O)c2[nH]cnc2n(C)c1=O.Cn1c(=O)c2[nH]cnc2n(C)c1=O.NCCN [aminophline] | only STA-4 demonstrated significant decreased in IgE and significant increase in IgG, IL-4, and IFN-γ | only STA-4 demonstrated significant decreased in IgE and significant increase in IgG, IL-4 | only STA-4 demonstrated significant decreased in IgE | only STA-4 demonstrated significant decreased in IgE and significant increase in IgG
3 | CN1CCC(=C2c3ccccc3CC(=O)c3sccc32)CC1 [ketotifen] | only STA-4 demonstrated significant decreased in IgE and significant increase in IgG, IL-4, and IFN-γ | only STA-4 demonstrated significant decreased in IgE and significant increase in IgG, IL-4 | only STA-4 demonstrated significant decreased in IgE | only STA-4 demonstrated significant decreased in IgE and significant increase in IgG
